US20260130933A1, “PHARMACEUTICAL COMPOSITION FOR PREVENTION OR TREATMENT OF NEPHROPATHY AND/OR DIABETES MELLITUS, COMPRISING ENAVOGLIFLOZIN” (DAEWOONG PHARMACEUTICAL CO., LTD., priority 2022, published 2026)
Values joined by “and” are separate entries in the source; they are usually repeats but may differ in a detail not shown here. Equal entries are not always repeated.

Assay: Example 2: phase 3 trial, enavogliflozin 0.3 mg vs dapagliflozin 10 mg once a day for 24 weeks added to metformin in patients with type 2 diabetes (same efficacy, exploratory and safety endpoints)
Format: in vivo, human
Experimental: Subjects who met the inclusion/exclusion criteria were administered a placebo of the clinical trial drug under single-blind (subject blinding) conditions during a 2-week run-in period while continuing to receive metformin. […] The randomized subjects were administered two tablets of the clinical trial drug for each administration group once a day, and then visited the institution at weeks 6, 12, 18, and 24 during the 24-week administration period to conduct efficacy and safety evaluations.
• 1. Change in HbA1c at week 24 after administration of clinical trial drug compared to Visit 2 (randomization)
• 1. Change in HbA1c at each time point of weeks 6, 12, and 18 after administration of clinical trial drug compared to Visit 2 (randomization) • 2. Change in FPG at each time point of weeks 6, 12, 18, and 24 after administration of clinical trial drug compared to Visit 2 (randomization) • 3. Proportion of subjects achieving HbA1c<7% at each time point of weeks 6, 12, 18, and 24 after administration of clinical trial drug • 4. Proportion of subjects achieving HbA1c<6.5% at each time point of weeks 6, 12, 18, and 24 after administration of clinical trial drug • 5. Proportion of subjects achieving therapeutic response (HbA1c change (HbA1c at Visit 2-HbA1c at each evaluation time point)>0.5% or HbA1c<7% at each evaluation time point compared to Visit 2 (randomization)) at each time point of weeks 6, 12, 18 and 24 after administration of clinical trial drug
• 1. Change in fasting c-peptide at each time point of weeks 6, 12, 18, and 24 after administration of clinical trial drug compared to Visit 2 (randomization) • 2. Change in body weight at each time point of weeks 6, 12, 18, and 24 after administration of clinical trial drug compared to Visit 2 (randomization) • 3. Change in fasting lipid concentration (total cholesterol, LDL-C, HDL-C, and triglycerides) at each time point of weeks 6, 12, 18, and 24 after administration of clinical trial drug compared to Visit 2 (randomization) • 4. Changes in systolic or diastolic blood pressure at each time point of weeks 6, 12, 18, and 24 after administration of clinical trial drug compared to Visit 2 (randomization) • 5. Changes in β-cell function and insulin resistance measured by HOMA-β and HOMA-IR at each time point of weeks 6, 12, 18, and 24 after administration of clinical trial drug compared to Visit 2 (randomization) • 6. Changes in renal function-related indicators (UACR, UGCR) measured by UACR at each time point of weeks 6, 12, 18, and 24 after administration of clinical trial drug compared to Visit 2 (randomization) • 7. Changes in obesity-related indicators (adiponectin, leptin) at each time point of weeks 6, 12, 18, and 24 after administration of clinical trial drug compared to Visit 2 (randomization)

[1] = week 12, per-protocol set, enavogliflozin 0.3 mg, dapagliflozin 10 mg
[2] = week 18, listed as enavogliflozin
[3] = week 18, modified per-protocol set 1, enavogliflozin 0.3 mg, dapagliflozin 10 mg
[4] = week 18, per-protocol set, enavogliflozin 0.3 mg vs dapagliflozin 10 mg
[5] = week 18, per-protocol set, enavogliflozin 0.3 mg, dapagliflozin 10 mg

OC[C@H]1O[C@@H](c2cc(Cc3ccc(C4CC4)cc3)c(Cl)c3c2CCO3)[C@H](O)[C@@H](O)[C@@H]1O [Enavogliflozin, (2S,3R,4R,5S,6R)-2-(7-chloro-6 (4-cyclopropylbenzyl)-2,3-dihydrobenzofuran-4-yl)-6-(hydroxymethyl)tetrahydro-2H-pyran-3,4,5-triol]
FPG, Median [1]: 115.50 mg/dL
HbA1c, Mean (SD) [1]: 6.97%
HbA1c, Median [1]: 6.83%
Subjects achieving HbA1c target of <6.5%, (%) [1]: (15.96) %
Subjects achieving therapeutic glycemic response, (%) [1]: (88.30) %
body weight, Mean (SD) [1]: 67.44(11.05) kg
body weight, Median [1]: 65.70 kg
fasting c-peptide, Mean (SD) [1]: 0.65(0.28) ng/mL
fasting c-peptide, Median [1]: 0.61 ng/mL
FPG change from baseline, LS mean (SE) (week 18): −33.44(1.60) mg/dL
HOMA-IR change from baseline, LS mean (SE) (week 18): −1.79(0.11)
HOMA-β change from baseline, LS mean (SE) (week 18): 10.97(3.06)
HbA1c change from baseline, LS mean (SE) (week 18): −0.74(0.06) % p
LDL-C change from baseline, LS mean (SE) (week 18): 1.42(1.86) mg/dL
Subjects achieving HbA1c target of <7% (week 18): (62.64) %
Subjects achieving HbA1c<6.5% (week 18): 9.89%
Subjects achieving therapeutic response (HbA1c change >0.5% or HbA1c<7%) (week 18): 80.22%
UACR change from baseline, LS mean (SE) (week 18): −23.05(5.06) g/kg
diastolic blood pressure change from baseline, LS mean (SE) (week 18): −4.80(0.78) mmHg
fasting c-peptide change from baseline, LS mean (SE) (week 18): −0.07(0.18) ng/ml
leptin change from baseline, LS mean (SE) (week 18): −2.49(0.52) ng/mL
systolic blood pressure change from baseline, LS mean (SE) (week 18): -6.69 mmHg
FPG change from baseline, LS mean difference (week 18, vs dapagliflozin): -2.31 mg/dL
HDL-C change from baseline, LS mean difference (week 18, vs dapagliflozin): -0.62 mg/dL
HOMA-IR change from baseline, LS mean difference (week 18, vs dapagliflozin): −0.32
HOMA-β change from baseline, LS mean difference (week 18, vs dapagliflozin): −2.53
HbA1c change from baseline, LS mean difference (week 18, vs dapagliflozin): −0.05 % p
LDL-C change from baseline, LS mean difference (week 18, vs dapagliflozin): -1.15 mg/dL
Odds ratio for achieving HbA1c<6.5% (week 18, vs dapagliflozin): 0.31
Odds ratio for achieving HbA1c<7% (week 18, vs dapagliflozin): 1.29
Odds ratio for achieving therapeutic response (week 18, vs dapagliflozin): 1.58
UACR change from baseline, LS mean difference (week 18, vs dapagliflozin): −10.10
UGCR change from baseline, LS mean difference (week 18, vs dapagliflozin): 18.25 mg/mg
body weight change from baseline, LS mean difference (week 18, vs dapagliflozin): 0.02 kg
diastolic blood pressure change from baseline, LS mean difference (week 18, vs dapagliflozin): −0.70 mmHg
fasting c-peptide change from baseline, LS mean difference (week 18, vs dapagliflozin): -0.02 ng/mL
leptin change from baseline, LS mean difference (week 18, vs dapagliflozin): -1.26 ng/mL
systolic blood pressure change from baseline, LS mean difference (week 18, vs dapagliflozin): −0.72 mmHg
total cholesterol change from baseline, LS mean difference (week 18, vs dapagliflozin): -1.77 mg/dL
triglyceride change from baseline, LS mean difference (week 18, vs dapagliflozin): -6.87 mg/dL
Subjects achieving HbA1c target of <7% [2]: 62.64%
UGCR change from baseline, LS mean (SE) [2]: 60.97(2.13) mg/mg and 42.72(2.15) mg/mg
Change from baseline in total cholesterol, ANCOVA LS mean difference (week 18, modified per-protocol set 1, enavogliflozin 0.3 mg vs dapagliflozin 10 mg): -1.77 mg/dL
Change from baseline in Total cholesterol, ANCOVA LS mean (SE) [3]: 7.80(2.16) mg/dL
Change from baseline in Total cholesterol, Mean (SD) [3]: 6.23(16.54) mg/dL
Change from baseline in total cholesterol, Median [3]: 6.00 mg/dL
fasting Total cholesterol, Mean (SD) [3]: 156.99(32.54) mg/dL
fasting Total cholesterol, Median [3]: 149.00 mg/dL
Change from baseline in FPG, ANCOVA LS mean difference [4]: -2.31 mg/dL
Change from baseline in HbA1c, ANCOVA LS mean difference [4]: −0.05 % p
Change from baseline in body weight, ANCOVA LS mean difference [4]: 0.02 kg
Change from baseline in fasting c-peptide, ANCOVA LS mean difference [4]: -0.02 ng/mL
Odds ratio for achieving HbA1c target of <6.5%, logistic regression model [4]: 0.31
Odds ratio for achieving therapeutic glycemic response, logistic regression model [4]: 1.58
Change from baseline in FPG, ANCOVA LS mean (SE) [5]: -33.44 mg/dL
Change from baseline in FPG, Mean (SD) [5]: -31.78 mg/dL
Change from baseline in FPG, Median [5]: -31.00 mg/dL
Change from baseline in HbA1c, ANCOVA LS mean (SE) [5]: −0.74 % p
Change from baseline in HbA1c, Mean (SD) [5]: −0.71 % p
Change from baseline in HbA1c, Median [5]: −0.56 % p
Change from baseline in body weight, ANCOVA LS mean (SE) [5]: −3.14(0.26) kg
Change from baseline in body weight, Mean (SD) [5]: −3.17(2.68) kg
Change from baseline in body weight, Median [5]: -3.20 kg
Change from baseline in fasting c-peptide, ANCOVA LS mean (SE) [5]: −0.08(0.02) ng/mL
Change from baseline in fasting c-peptide, Mean (SD) [5]: −0.07(0.18) ng/mL
Change from baseline in fasting c-peptide, Median [5]: -0.07 ng/mL
FPG, Mean (SD) [5]: 112.95 mg/dL
FPG, Median [5]: 113.00 mg/dL
HbA1c, Mean (SD) [5]: 7.02%
HbA1c, Median [5]: 6.89%
